Laboratory results published in PMC4494750 (Journal of medicinal chemistry, 2011).
Structures can show the parent of a compound that is named as a salt.

Key:
[1] = tested on: P. berghei; settings: subcutaneous injection, mice; without cure or at doses resulting in more toxic deaths than cures; ref 7a, 7e, 7b, 16; cited from earlier work
[2] = tested on: P. yoelii-Kenya; test: In vivo antimalarial efficacy: P. yoelii murine patent infection; design: species or system P. yoelii in CF-1 mice; settings: for weight loss or toxicity: 5 mg/kg/day by gavage
[3] = tested on: P. cynomolgi; settings: oral treatment, even at toxic doses; ref 7c; cited from earlier work
[4] = tested on: P. falciparum pansensitive D6; test: In vitro antimalarial activity: P. falciparum growth inhibition; assay type: cell-based; settings: Plasmodium falciparum, D6, 72 h, read-out: IC50 (nM) D6
[5] = 25 mg/kg/day by gavage, parasite-free for 28 days

## CCC1CCCCCCCCC2=N/C(=C\c3[nH]c(-c4ccc[nH]4)cc3OC)C1=C2 (stereo not shown) [Compound 3, metacycloprodiginine]
[1]
  effect on survival: extend survival
[2]; 100 mg/kg/day by gavage
  parasite clearance: complete
  weight loss: temporary weight loss
[2]; 100 mg/kg/day by gavage, parasite-free for 28 days
  mice cured: three of four
[2]; initial proof-of-principle testing, 25 mg/kg/day by gavage, 54.1% in controls
  parasitemia: 0.28%

## CCCCCC1=C/C(=C/c2[nH]c(-c3ccc[nH]3)cc2OC)N=C1C [Compound 1, prodigiosin]
[1]
  effect on survival: extend survival
[3]
  antimalarial activity: completely ineffective

## CCCCCCCCCCCC1=N/C(=C\c2[nH]c(-c3ccc[nH]3)cc2OC)C=C1 [Compound 2, undecylprodiginine]
[1]
  effect on survival: extend survival

## CCCc1cc(Cc2ccc(Cl)cc2)c(/C=C2\N=C(c3ccc[nH]3)C=C2OC)[nH]1 [Compound 57]
[2]
  weight loss or toxicity: without any evidence of weight loss or toxicity

## cyclononylprodiginine [Compound 78]
[1]
  effect on survival: extend survival

## CCCCCCc1cc(Cc2ccc(Cl)cc2)c(/C=C2\N=C(c3ccc[nH]3)C=C2OC)[nH]1 [Compound 58]
[2]
  weight loss or toxicity: without any evidence of weight loss or toxicity
[2]; [5]
  cures in treated group: one cure

## CCCC[C@H]1CCCCCCc2[nH]c(/C=C3\N=CC(c4ccc[nH]4)=C3OC)cc21 [Compound 77, butylcycloheptylprodiginine]
[1]
  effect on survival: extend survival

## CCN(CC)CCCC(C)Nc1ccnc2cc(Cl)ccc12 (stereo not shown) [CQ, chloroquine]
[4]
  IC50: 11 nM

## CCCCCCCc1cc(/C=C2\N=C(c3ccc[nH]3)C=C2OC)[nH]c1C [Compound 76, heptylprodigiosin]
[1]
  effect on survival: extend survival

## CCCCCCCCc1cc(CCC)c(/C=C2\N=C(c3ccc[nH]3)C=C2OC)[nH]1 [Compound 48, 4′-methoxy-5′-(5-octyl-3-propyl-1H-pyrrol-2-ylmethylene)-1H,5′H-[2,2′]bipyrrolyl, hydrochloride]
[2]
  weight loss or toxicity: without any evidence of weight loss or toxicity

## CCCCCCCCc1cc(Cc2ccc(Cl)cc2)c(/C=C2\N=C(c3ccc[nH]3)C=C2OC)[nH]1 [Compound 60]
[2]
  weight loss or toxicity: without any evidence of weight loss or toxicity
[2]; [5]
  cures in treated group: one cure

## CCCc1cc(CCC2CCCCC2)c(/C=C2\N=C(c3ccc[nH]3)C=C2OC)[nH]1 [Compound 49]
[2]
  weight loss or toxicity: without any evidence of weight loss or toxicity

## COC1=CC(c2ccc[nH]2)=N/C1=C\c1[nH]ccc1Cc1ccc(Cl)cc1 [Compound 41]
[2]
  weight loss or toxicity: without any evidence of weight loss or toxicity

## COC1=CC(c2ccc[nH]2)=N/C1=C\c1[nH]c(Cc2ccc(Cl)cc2)cc1Cc1ccc(Cl)cc1 [Compound 66]
[2]
  weight loss or toxicity: without any evidence of weight loss or toxicity
[2]; 25 mg/kg/day by gavage
  weight loss or clinical overt toxicity: without any evident weight loss or clinical overt toxicity
